# According to patent publication US20230158161A1, “DRUG DELIVERY SYSTEMS COMPRISING AN INTRAOCULAR PRESSURE LOWERING AGENT, A NEUROTROPHIC AGENT, A C-TYPE NATRIURETIC PEPTIDE, A NATRIURETIC PEPTIDE RECEPTOR-B, AN APOPTOSIS SIGNALING FRAGMENT INHIBITOR OR A FAS-LIGAND INHIBITOR FOR TREATING GLAUCOMA OR OCULAR HYPERTENSION” (Cella Therapeutics, LLC, priority 2020, published 2023):
# Test system: African Green monkeys
# Assay: IOP after intravitreal injection in African Green monkeys, PBS in the fellow eye as control
# Type: in vivo, African Green monkey
# Procedure: Eight African Green monkeys were screened to identify 4 animals with high-normal IOP. Animals were anesthetized with ketamine 10 mg/kg and Xylazine 0.5 mg/kg. Bimatoprost acid 100 ng in 50 μl was injected intravitreally in one eye through a 30-gauge syringe using a shelved technique, and 50 μl of phosphate buffered saline (PBS) was injected into the fellow eye as a concurrent control on days 0, 1, 2 at 8:30 pm. The bimatoprost acid dose was escalated to 200 ng in 100 μl, with the same volume of PBS given to the fellow eye, on days 3 (8:30 pm) and 4 (5:30 pm). IOP was measured with a Tonovet tonometer at 8:30 am, 11:30 am and 8:30 pm on day 1; 8:30 am, 11:30 am and 5:30 pm on day 4; and at 8:30 am on days 2, 3 and 5. The person measuring the IOP was masked to treatment assignment. Slit lamp exams were performed on day 0, 1 and 5. OCTs were performed at baseline and day 5.
compound,measurement,setting,value
O=C(O)CCC/C=C\C[C@@H]1[C@@H](/C=C/[C@@H](O)CCc2ccccc2)[C@H](O)C[C@@H]1O [bimatoprost acid],reduction in IOP compared with the fellow eye,"100 ng intravitreal, one of four animals (B392) responded, at 1 timepoint",30%
same,IOP reduced in the treated eye compared with the fellow eye receiving PBS,"200 ng intravitreal, animal B392, day 5",52%
same,reduction in IOP compared with the fellow eye,"200 ng intravitreal, three of four animals responded, at 1 or more timepoints",30%
same,IOP response,"animal B300, 100 ng and 200 ng intravitreal",did not respond to either dose
same,"IOP lowering effect, overall conclusion","intravitreal, dose-response between the 100 ng and 200 ng doses",clear IOP lowering-effect
